Data on 42 compounds can be found in US8507538B2, “Selective heterocyclic sphingosine 1 phosphate receptor modulators” (Receptos, Inc., priority 2009, dated 2013).

This assay addresses S1P1/EDG1 (Homo sapiens, UniProt P21453). The experiment in a line: S1P1 CRE-bla CHOK1 reporter assay (inhibition of Forskolin induced cAMP). In kind it is cell-based. The settings on record: agonist activity range, Table 2; read-out: S1P1 ACTIVITY
An excerpt:
A mammalian expression plasmid containing S1P1/EDG1 cloned into pcDNA3.1 was purchased from Missouri S&T cDNA Resource Centre. The nucleotide and amino acid sequence of human S1P1/EDG1 are published in Hla and Maciag (J Biol Chem, 265(1990), 9308-9313). S1P1/pcDNA3.1 was transfected into the CRE-bla CHO K1 (Invitrogen) cell line, and stable single cell clones were selected using standard techniques. Expression of functional SIP1/EDG1 receptor was confirmed by cell surface FACS with a S1P1 antibody (R&D Systems, clone 218713) and S1P-mediated inhibition of Forskolin induced cAMP.
Cells were seeded into 384-well black wall/clear bottom plates at 10^4 cells/well/19.5 μl assay media (DMEM-phenol free, 0.5% charcoal/dextran stripped serum, 2 mM glutamine, 0.1 mM NEAA, 1 mM Na-Pyruvate, 25 mM Hepes) and incubated for 18 hrs at 37° C. in 5% CO2. Dose response curves (10-point) were generated in 10 mM Hepes, 0.1% Pluronic F127, in the presence of Forskolin. Cells were treated with 0.5 μl compound in the presence of 2 μM Forskolin for 4 hrs at 37° C. The FRET-based β-lactamase fluorescent substrate (LiveBLAzer™ FRET B/G Loading Kit CC4-AM; Invitrogen) was prepared according to manufacturer's directions, and incubated with cells for 2 hrs at room temperature. Plates were read at Ex:410/Em:458 and Ex:410/Em:522, and the response ratio determined. Data was analyzed by non-linear regression to determine the EC50 for inhibition of Forskolin induced cAMP.

Sequence of S1P1/EDG1 (P21453 whole entry): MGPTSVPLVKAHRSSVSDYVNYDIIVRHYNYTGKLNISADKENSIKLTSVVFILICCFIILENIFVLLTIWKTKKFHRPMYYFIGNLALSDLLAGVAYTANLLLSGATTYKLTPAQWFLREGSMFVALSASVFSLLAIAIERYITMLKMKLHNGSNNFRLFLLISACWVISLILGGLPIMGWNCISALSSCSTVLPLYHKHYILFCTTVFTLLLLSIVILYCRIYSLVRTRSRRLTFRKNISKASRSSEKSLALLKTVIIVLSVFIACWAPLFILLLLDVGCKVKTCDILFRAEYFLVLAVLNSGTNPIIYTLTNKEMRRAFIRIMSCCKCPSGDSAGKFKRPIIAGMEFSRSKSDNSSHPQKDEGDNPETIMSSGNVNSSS

With `CC(C)Oc1ccc(-c2ncc(-c3cccc4c3CCC4NS(C)(=O)=O)s2)cc1C#N` (stereo in doubt) [Compound 111, (R)-N-(4-(2-(3-cyano-4-isopropoxyphenyl)thiazol-5-yl)-2,3-dihydro-1H-inden-1-yl)methanesulfonamide], the EC50 is 0.05 to 0.5 nM.

As for `CC(C)Oc1ccc(-c2nnc(-c3cccc4c3CC[C@@H]4NS(C)(=O)=O)s2)cc1C#N` [Compound 33, (S)-N-(4-(5-(3-cyano-4-isopropoxyphenyl)-1,3,4-thiadiazol-2-yl)-2,3-dihydro-1H-inden-1-yl)methanesulfonamide], the EC50 fell in the range of 0.05 to 0.5 nM.

For the compound `CC(C)Oc1ccc(-c2ncc(-c3cccc4c3CC[C@@H]4NC(=O)N3CCC[C@H](O)C3)s2)cc1C#N` [Compound 198], the EC50 fell in the range of 0.05 to 0.5 nM. In the case of `CC(C)Oc1ccc(-c2ncc(-c3cccc4c3CC[C@@H]4NC(=O)N3CCNCC3)s2)cc1C#N` [Compound 188] it was 0.5 to 5 nM; in that of `CC(C)Oc1ccc(-c2nnc(-c3cccc4c3CC[C@@H]4NC(=O)N3CC(O)C3)s2)cc1C#N` [Compound 65], 0.05 to 0.5 nM. In the case of `CC(C)Oc1ccc(-c2ncc(-c3cccc4c3CC[C@@H]4NCC(=O)N3CCC[C@H](O)C3)s2)cc1C#N` [Compound 106] it was over 5 nM; in that of `CC(C)Oc1ccc(-c2nnc(-c3cccc4c3CC[C@H]4NS(=O)(=O)CCN3CC[C@@H](O)C3)s2)cc1C#N` (stereo in doubt) [Compound 38, N-((R)-4-(5-(3-cyano-4-isopropoxyphenyl)-1,3,4-thiadiazol-2-yl)-2,3-dihydro-1H -inden-1-yl)-2-((R)-3-hydroxypyrrolidin-1-yl)ethanesulfonamide], 0.5 to 5 nM. As for `CC(C)Oc1ccc(-c2ncc(-c3cccc4c3CC[C@@H]4NS(=O)(=O)CCN3CCOCC3)s2)cc1C#N` [Compound 121], the figure is 0.5 to 5 nM. As to `CC(C)Oc1ccc(-c2ncc(-c3cccc4c3CCC4N3CCCC3)s2)cc1C#N` (stereo not drawn) [Compound 208], the EC50 is 0.5 to 5 nM.

Regarding `CC(=O)N[C@H]1CCc2c(-c3nnc(-c4ccc(OC(C)C)c(C#N)c4)s3)cccc21` [Compound 14, (S)-N-(4-(5-(3-cyano-4-isopropoxyphenyl)-1,3,4-thiadiazol-2-yl)-2,3-dihydro-1H-inden-1-yl)acetamide], the EC50 was in the range of 0.05 to 0.5 nM.

As for `CC(C)Oc1ccc(-c2ncc(-c3cccc4c3CC[C@@H]4NCC(=O)N3CCCC3)s2)cc1C#N` [Compound 100], the EC50 lay within 0.05 to 0.5 nM.

Take `CC(C)Oc1ccc(-c2nnc(-c3cccc4c3CC[C@@H]4NC(=O)CN(C)C)s2)cc1C#N` [Compound 13]: the EC50 lay within 0.5 to 5 nM.

As for `CC(C)Oc1ccc(-c2ncc(-c3cccc4c3CC[C@@H]4NC(=O)N3CC[C@@H](N)C3)s2)cc1C#N` [Compound 178], the EC50 was in the range of 0.05 to 0.5 nM.

For `CC(C)Oc1ccc(-c2ncc(-c3cccc4c3CCC4N[C@H](C)CO)s2)cc1C#N` (stereo partly drawn) [Compound 95], the EC50 lay in the range of 0.5 to 5 nM.

Regarding `CC(C)Oc1ccc(-c2ccc(-c3cccc4c3CCC4NCCO)s2)cc1C#N` (stereo not drawn) [Compound 224, 5-(5-(1-(2-hydroxyethylamino)-2,3-dihydro-1H-inden-4-yl)thiophen-2-yl)-2-isopropoxybenzonitrile], the EC50 was over 5 nM. As for `CC(C)Oc1ccc(-c2nnc(-c3cccc4c3CC[C@H]4NC(=O)N(C)C)s2)cc1C#N` [Compound 66], the figure is 0.05 to 0.5 nM.

Turning to `CC(C)Oc1ccc(-c2ncc(-c3cccc4c3CC[C@H]4NS(=O)(=O)CCN3CCC[C@@H](O)C3)s2)cc1C#N` (stereo in doubt) [Compound 143, N-((R)-4-(2-(3-cyano-4-isopropoxyphenyl)thiazol-5-yl)-2,3-dihydro-1H-inden-1-yl)-2-((R)-3-hydroxypiperidin-1-yl)ethanesulfonamide], the EC50 lay within 0.5 to 5 nM. In the case of `CC(C)Oc1ccc(-c2ncc(-c3cccc4c3CC[C@@H]4NC(=O)N3CC(O)C3)s2)cc1C#N` [Compound 170] it was 0.5 to 5 nM; in that of `CC(C)Oc1ccc(-c2ncc(-c3cccc4c3CC[C@@H]4NS(=O)(=O)CCN3CCC[C@H](O)C3)s2)cc1C#N` [Compound 144], 0.5 to 5 nM; in that of `CC(C)Oc1ccc(-c2nnc(-c3cccc4c3CC[C@@H]4NCC(=O)O)s2)cc1C#N` [Compound 26, (S)-2-((4-(5-(3-cyano-4-isopropoxyphenyl)-1,3,4-thiadiazol-2-yl)-2,3-dihydro-1H-inden-1-yl)amino)acetic acid], 0.05 to 0.5 nM.

Turning to `CC(C)Oc1ccc(-c2nnc(-c3cccc4c3CCC4NS(N)(=O)=O)s2)cc1C#N` (stereo in doubt) [Compound 48, (R)-N-(4-(5-(3-cyano-4-isopropoxyphenyl)-1,3,4-thiadiazol-2-yl)-2,3-dihydro-1H-inden-1-yl)sulfamide], the EC50 was under 0.05 nM. For the compound `CC(C)Oc1ccc(-c2ncc(-c3cccc4c3CCC4N3CC(O)C3)s2)cc1C#N` (stereo not drawn) [Compound 207, 5-(5-(1-(3-hydroxyazetidin-1-yl)-2,3-dihydro-1H-inden-4-yl)thiazol-2-yl)-2-isopropoxybenzonitrile], the EC50 lay within 0.5 to 5 nM.

Consider `CC(C)Oc1ccc(-c2nnc(-c3cccc4c3CC[C@@H]4NC(=O)CN)s2)cc1C#N` [Compound 9], for which the EC50 is 0.05 to 0.5 nM. Turning to `CC(C)Oc1ccc(-c2ncc(-c3cccc4c3CC[C@@H]4NC(=O)N3CC[C@H](O)C3)s2)cc1C#N` [Compound 177], the EC50 fell in the range of 0.05 to 0.5 nM.

For the compound `CC(C)Oc1ccc(-c2ncc(-c3cccc4c3CC[C@@H]4NC(=O)[C@H](N)CO)s2)cc1C#N` [Compound 79], the EC50 is 0.05 to 0.5 nM. In the case of `CC(C)Oc1ccc(-c2ncc(-c3cccc4c3CCC4N3CC[C@H](N)C3)s2)cc1C#N` (stereo partly drawn) [Compound 211] it was 0.5 to 5 nM. In the case of `CCOc1ccc(-c2nnc(-c3cccc4c3CCC4O)s2)cc1OCC` (stereo not drawn) [Compound 3] it was 0.5 to 5 nM. As to `CC(C)Oc1ccc(-c2nnc(-c3cccc4c3CC[C@@H]4NC(=O)N3CCC[C@H](O)C3)s2)cc1C#N` [Compound 60], the EC50 lay within 0.5 to 5 nM.

`COC(=O)N[C@H]1CCc2c(-c3cnc(-c4ccc(OC(C)C)c(C#N)c4)s3)cccc21` [Compound 89]: the EC50 lay within 0.5 to 5 nM. As for `CC(C)Oc1ccc(-c2ncc(-c3cccc4c3CCC4NS(=O)(=O)CC(=O)N3CCOCC3)s2)cc1C#N` (stereo in doubt) [Compound 162, (R)—N-(4-(2-(3-cyano-4-isopropoxyphenyl)thiazol-5-yl)-2,3-dihydro-1H-inden-1-yl)-2-morpholino-2-oxoethanesulfonamide], the figure is 0.05 to 0.5 nM. In the case of `CNCCS(=O)(=O)N[C@H]1CCc2c(-c3cnc(-c4ccc(OC(C)C)c(C#N)c4)s3)cccc21` [Compound 125] it was 0.5 to 5 nM; in that of `CC(C)Oc1ccc(-c2ncc(-c3cccc4c3CC[C@@H]4NS(=O)(=O)CCC(=O)O)s2)cc1C#N` [Compound 161], 0.05 to 0.5 nM; in that of `CC(C)Oc1ccc(-c2ccc(-c3cccc4c3CC[C@H]4N)s2)cc1C#N` [Compound 225, (R)-5-(5-(1-amino-2,3-dihydro-1H-inden-4-yl)thiophen-2-yl)-2-isopropoxybenzonitrile], over 5 nM. For `CC(C)Oc1ccc(-c2cnc(-c3cccc4c3CCC4O)s2)cc1C#N` (stereo not drawn) [Compound 222, 5-(2-(1-hydroxy-2,3-dihydro-1H-inden-4-yl)thiazol-5-yl)-2-isopropoxy-benzonitrile], the EC50 is over 5 nM. In the case of `CC(C)Oc1ccc(-c2ncc(-c3cccc4c3CC[C@@H]4NC(=O)CN3CCCC3)s2)cc1C#N` [Compound 85] it was over 5 nM; in that of `COCCN(CCOC)[C@H]1CCc2c(-c3nnc(-c4ccc(OC(C)C)c(C#N)c4)s3)cccc21` [Compound 30], 0.5 to 5 nM; in that of `CC(C)Oc1ccc(-c2nnc(-c3cccc4c3CCC4NS(=O)(=O)CC(=O)O)s2)cc1C#N` (stereo in doubt) [Compound 41, (R)-2-(N-(4-(5-(3-cyano-4-isopropoxyphenyl)-1,3,4-thiadiazol-2-yl)-2,3-dihydro-1H-inden-1-yl)sulfamoyl)acetic acid], under 0.05 nM. In the case of `CC(C)Oc1ccc(-c2nnc(-c3cccc4c3CCC4NC(=O)N3CC[C@H](N(C)C)C3)s2)cc1C#N` (stereo in doubt) [Compound 57, (S)-N-((R)-4-(5-(3-cyano-4-isopropoxyphenyl)-1,3,4-thiadiazol-2-yl)-2,3-dihydro-1H-inden-1-yl)-3-(dimethylamino)pyrrolidine-1-carboxamide] it was 0.5 to 5 nM; in that of `CC(C)Oc1ccc(-c2ncc(-c3cccc4c3CCC4NCCS(C)(=O)=O)s2)cc1C#N` (stereo in doubt) [Compound 220, (R)-2-isopropoxy-5-(5-(1-((2-(methylsulfonyl)ethyl)amino)-2,3-dihydro-1H-inden-4-yl)thiazol-2-yl)benzonitrile], 0.05 to 0.5 nM. As for `CC(C)Oc1ccc(-c2ncc(-c3cccc4c3CC[C@@H]4NS(=O)(=O)CCN3CC[C@H](N(C)C)C3)s2)cc1C#N` [Compound 137], the EC50 was over 5 nM. As for `CC(C)Oc1ccc(-c2ncc(-c3cccc4c3CC[C@@H]4NC(=O)N3CCC(N(C)C)CC3)s2)cc1C#N` [Compound 192], the figure is over 5 nM; as for `CC(C)Oc1ccc(-c2ncc(-c3cccc4c3CC[C@@H]4NS(=O)(=O)CCN3CCC(O)CC3)s2)cc1C#N` [Compound 146], 0.5 to 5 nM.
